# Laboratory results: patent publication US10730889B2, “Amido spirocyclic amide and sulfonamide derivatives” (Forma TM, LLC, priority 2012, dated 2020)
# Where two headings read alike, the source gives them in different places.
# Tested on: A2780 cells
# Assay: In-vitro cell proliferation assay (SRB, 72 hours)
# Format: cell-based
# Conditions: read-out: Cell Proliferation (IC50)
# [1] = Homo sapiens, A2780, 72 h, A2780 cells, 72 hours, SRB
Compound,IC50 [1],other results
"Cc1nn(C)c(C)c1C(=O)N1CCC2(CC1)CC2CNC(=O)c1cc2ccncc2o1 (single isomer, unassigned) [Example 300, N-[[6-(1,3,5-trimethylpyrazole-4-carbonyl)-6-azaspiro[2.5]octan-2-yl]methyl]furo[2,3-c]pyridine-2-carboxamide]",–,"IC50 (A2780 cells, 72 hours, SRB): 335 nM"
"Cc1nn(C)c(C)c1C(=O)N1CCC2(CC1)CC2CNC(=O)c1cc2ccncc2o1 (single isomer, unassigned) [Example 301, N-[[6-(1,3,5-trimethylpyrazole-4-carbonyl)-6-azaspiro[2.5]octan-2-yl]methyl]furo[2,3-c]pyridine-2-carboxamide]",–,"IC50 (A2780 cells, 72 hours, SRB): 4.21 nM"
"CC(C)(C)OC(=O)N1CCC2(CC1)CC(CNC(=O)c1ccc3nccn3c1)C2 [Example 21, tert-butyl 2-((imidazo[1,2-a]pyridine-6-carboxamido)methyl]-7-azaspiro[3.5]nonane-7-carboxylate]",2000 nM,–
"O=C(NCC1CC12CCN(C(=O)Cn1ccnc1)CC2)c1cc2ccncc2o1 (stereo not drawn) [Example 26, N-[[6-(2-imidazol-1-ylacetyl)-6-azaspiro[2.5]octan-2-yl]methyl]furo[2,3-c]pyridine-2-carboxamide]",2000 nM,–
"O=C(NCC1CC12CCN(C(=O)CC1CC1)CC2)c1cc2ccncc2o1 (stereo not drawn) [Example 32, N-[[6-(2-cyclopropylacetyl)-6-azaspiro[2.5]octan-2-yl]methyl]furo[2,3-c]pyridine-2-carboxamide]",2000 nM,–
"O=C(NCC1CC12CCN(C(=O)CN1CCCC1)CC2)c1cc2ccncc2o1 (stereo not drawn) [Example 33, N-[[6-(2-pyrrolidin-1-ylacetyl)-6-azaspiro[2.5]octan-2-yl]methyl]furo[2,3-c]pyridine-2-carboxamide]",2000 nM,–
"O=C(NCC1CC12CCN(C(=O)CN1CCCCC1)CC2)c1cc2ccncc2o1 (stereo not drawn) [Example 35, N-[[6-[2-(1-piperidyl)acetyl]-6-azaspiro[2.5]octan-2-yl]methyl]furo[2,3-c]pyridine-2-carboxamide]",2000 nM,–
"CC(C)(C)OCC(=O)N1CCC2(CC1)CC2CNC(=O)c1cc2ccncc2o1 (stereo not drawn) [Example 38, N-[[6-(2-tert-butoxyacetyl)-6-azaspiro[2.5]octan-2-yl]methyl]furo[2,3-c]pyridine-2-carboxamide]",18.8 nM,–
"O=C(NCC1CC12CCN(C(=O)Cc1cnccn1)CC2)c1cc2ccncc2o1 (stereo not drawn) [Example 50, N-[[6-(2-pyrazin-2-ylacetyl)-6-azasptro[2.5]octan-2-yl]methyl]furo[2,3-c]pyridine-2-carboxamide]",2000 nM,–
"CC(C(=O)N1CCC2(CC1)CC2CNC(=O)c1cc2ccncc2o1)N1CCCC1 (stereo not drawn) [Example 53, N-[[6-(2-pyrrolidin-1-ylpropanoyl)-6-azaspiro[2.5]octan-2-yl]methyl]furo[2,3-c]pyridine-2-carboxamide]",846 nM,–
"CN(C)C(=O)CCC(=O)N1CCC2(CC1)CC2CNC(=O)c1cc2ccncc2o1 (stereo not drawn) [Example 55, N-[[6-[4-(dimethylamino)-4-oxo-butanoyl]-6-azaspiro[2.5]octan-2-yl]methyl]furo[2,3-c]pyridine-2-carboxamide]",2000 nM,–
"CN1CC(C(=O)N2CCC3(CC2)CC3CNC(=O)c2cc3ccncc3o2)CC1=O (stereo not drawn) [Example 56, N-[[6-(1-methyl-5-oxo-pyrrolidine-3-carbonyl)-6-azaspiro[2.5]octan-2-yl]methyl]furo[2,3-c]pyridine-2-carboxamide]",2000 nM,–
"O=C(NCC1CC12CCN(C(=O)CN1CCCC1=O)CC2)c1cc2ccncc2o1 (stereo not drawn) [Example 57, N-[[6-[2-(2-oxopyrrolidin-1-yl)acetyl]-6-azaspiro[2.5]octan-2-yl)methyl]furo[2,3-c]pyridine-2-carboxamide]",1600 nM,–
"O=C(NCC1CC12CCN(C(=O)C1CC1(F)F)CC2)c1cc2ccncc2o1 (stereo not drawn) [Example 58, N-[[6-(2,2-difluorocyclopropanecarbonyl)-6-azaspiro[2.5]octan-2-yl]methyl]furo(2,3-c]pyridine-2-carboxamide]",–,"IC50 (Homo sapiens, A2780, 72 h): 2000 nM"
"O=C(NCC1CC12CCN(C(=O)C1CCOC1)CC2)c1cc2ccncc2o1 (stereo not drawn) [Example 59, N-[[6-(tetrahydrofuran-3-carbonyl)-6-azaspiro[2.5]octan-2-yl]methyl]furo[2,3-c]pyridine-2-carboxamide]",2000 nM,–
"O=C(NCC1CC12CCN(C(=O)C1CCOCC1)CC2)c1cc2ccncc2o1 (stereo not drawn) [Example 60, N-[[6-(tetrahydropyran-4-carbonyl)-6-azaspiro[2.5]octan-2-yl]methyl]furo[2,3-c]pyridine-2-carboxamide]",1530 nM,–
"O=C(NCC1CC12CCN(C(=O)C1CCCO1)CC2)c1cc2ccncc2o1 (stereo not drawn) [Example 61, N-[[6-(tetrahydrofuran-2-carbonyl)-6-azaspiro[2.5]octan-2-yl]methyl]furo[2,3-c]pyridine-2-carboxamide]",2000 nM,–
"O=CNCC(=O)N1CCC2(CC1)CC2CNC(=O)c1cc2ccncc2o1 (stereo not drawn) [Example 62, N-[[6-(2-formamidoacetyl)-6-azaspiro[2.5]octan-2-yl]methyl]furo[2,3-c]pyridine-2-carboxamide]",2000 nM,–
"Cc1cc(C)n(CCC(=O)N2CCC3(CC2)CC3CNC(=O)c2cc3ccncc3o2)n1 (stereo not drawn) [Example 63, N-[[6-[3-(3,5-dimethylpyrazol-1-yl)propanoyl]-6-azaspiro[2.5]octan-2-yl]methyl]furo[2,3-c]pyridine-2-carboxamide]",1390 nM,–
"NC(=O)N1CCCC1C(=O)N1CCC2(CC1)CC2CNC(=O)c1cc2ccncc2o1 (stereo not drawn) [Example 64, N-[[6-(1-carbamoylpyrrolidine-2-carbonyl)-6-azaspiro[2.5]octan-2-yl]methyl]furo[2,3-c]pyridine-2-carboxamide]",2000 nM,–

# More lines, main results first:
IC50 [1],Compound,other results
436 nM,"Cc1nc(C)c(C(=O)N2CCC3(CC2)CC3CNC(=O)c2cc3ccncc3o2)o1 (single isomer, unassigned) [Example 384, N-[[6-(2,4-dimethyloxazole-5-carbonyl)-6-azaspiro[2.5]octan-2-yl]methyl]furo[2,3-c]pyridine-2-carboxamide (single isomer)]",–
791 nM,"O=C(NCC1CC12CCN(C(=O)C1CCOCC1)CC2)c1cc2cnccc2[nH]1 (stereo not drawn) [Example 10, N-[[8-(tetrahydropyran-4-carbonyl)-8-azaspiro[2.5]octan-2-yl]methyl]-1H-pyrrolo[3,2-c]pyridine-2-carboxamidc]",–
842 nM,"O=C(NCC1CC12CCN(C(=O)CCC(F)(F)F)CC2)c1cc2ccncc2o1 (stereo not drawn) [Example 27, N-[[6-(4,4,4-trifluorobutanoyl)-6-azaspiro[2.5]octan-2-yl]methyl]furo[2,3-c]pyridine-2-carboxamide]",–
616 nM,"CS(=O)(=O)c1cccc(CC(=O)N2CCC3(CC2)CC3CNC(=O)c2cc3ccncc3o2)c1 (stereo not drawn) [Example 28, N-[[6-[2-(3-methylsulfonylphenyl)acetyl]-6-azaspiro[2.5]octan-2-yl]methyl]furo[2,3-c]pyridine-2-carboxamide]",–
3.03 nM,"CC(C)(C)CC(=O)N1CCC2(CC1)CC2CNC(=O)c1cc2ccncc2o1 (stereo not drawn) [Example 29, N-[[6-(3,3-dimethylbutanoyl)-6-azaspiro[2.5]octan-2-yl]methyl]furo[2,3-c]pyridine-2-carboxamide]",–
614 nM,"CN1CCN(CC(=O)N2CCC3(CC2)CC3CNC(=O)c2cc3ccncc3o2)CC1 (stereo not drawn) [Example 30, N-[[6-[2-(4-methylpiperazin-1-yl)acetyl]-6-azaspiro[2.5]octan-2-yl]methyl]furo[2,3-c]pyridine-2-carboxamide]",–
12.1 nM,"N#Cc1cccc(CC(=O)N2CCC3(CC2)CC3CNC(=O)c2cc3ccncc3o2)c1 (stereo not drawn) [Example 31, N-[[6-[2-(3-cyanophenyl)acetyl]-6-azaspiro[2.5]octan-2-yl]methyl]furo[2,3-c]pyridine-2-carboxamide]",–
379 nM,"Cc1cc(CC(=O)N2CCC3(CC2)CC3CNC(=O)c2cc3ccncc3o2)on1 (stereo not drawn) [Example 34, N-[[6-[2-(3-methylisoxazol-5-yl)acetyl]-6-azaspiro[2.5]octan-2-yl]methyl]furo[2,3-c]pyridine-2-carboxamide]",–
185 nM,"O=C(NCC1CC12CCN(C(=O)CC1CCOCC1)CC2)c1cc2ccncc2o1 (stereo not drawn) [Example 36, N-[[6-(2-tetrahydropyran-4-ylacetyl)-6-azaspiro[2.5]octan-2-yl]methyl]furo[2,3-c]pyridine-2-carboxamide]",–
643 nM,"O=C(NCC1CC12CCN(C(=O)CC1CCCO1)CC2)c1cc2ccncc2o1 (stereo not drawn) [Example 37, N-[[6-(2-tetrahydrofuran-2-ylacetyl)-6-azasptro[2.5]octan-2-yl]methyl]furo[2,3-c]pyridine-2-carboxamide]",–
232 nM,"O=C(NCC1CC12CCN(C(=O)Cc1cccnc1)CC2)c1cc2ccncc2o1 (stereo not drawn) [Example 39, N-[[6-[2-(3-pyridyl)acetyl]-6-azaspiro[2.5]octan-2-yl]methyl]furo[2,3-c]pyndine-2-carboxamide]",–
24.3 nM,"O=C(NCC1CC12CCN(C(=O)CC1CCN(CC(F)(F)F)CC1)CC2)c1cc2cnccc2[nH]1 (stereo not drawn) [Example 40, N-[[6-[2-[1-(2,2,2-trifluoroethyl)-4-piperidyl]acetyl]-6-azaspiro[2.5]octan-2-yl]methyl]-1H-pyrrolo[3,2-c]pyridine-2-carboxamide]",–
402 nM,"CC(C)CC(=O)N1CCC2(CC1)CC2CNC(=O)c1cc2cnccc2[nH]1 (stereo not drawn) [Example 46, N-[[6-(3-methylbutanoyl)-6-azaspiro[2.5]octan-2-yl]methyl]-1H-pyrrolo[3,2-c]pyridine-2-carboxamide]",–
12.6 nM,"O=C(Cc1ccccc1)N1CCC2(CC1)CC2CNC(=O)N1Cc2ccncc2C1 (stereo not drawn) [Example 47, N-[[6-(2-phenylacetyl)-6-azaspiro[2.5]octan-2-yl]methyl]-1,3-dihydropyrrolo[3,4-c]pyridine-2-carboxamide]",–
367 nM,"O=C(NCC1CC12CCN(C(=O)CN1CCOCC1)CC2)c1cc2ccncc2o1 (stereo not drawn) [Example 51, N-[[6-(2-morpholinoacetyl)-6-azaspiro[2.5]octan-2-yl]methyl]furo[2,3-c]pyridine-2-carboxamide]",–
674 nM,"O=C(NCC1CC12CCN(C(=O)CC1CCCCO1)CC2)c1cc2ccncc2o1 (stereo not drawn) [Example 52, N-[[6-(2-tetrahydropyran-2-ylacetyl)-6-azaspiro[2.5]octan-2-yl]methyl]furo[2,3-c]pyridine-2-carboxamide]",–
